From patent publication US12358886B2, “Heterocyclic compounds for use in the treatment of cancer” (Artios Pharma Limited, priority 2019, dated 2025)

Target: Polθ protein (amino acids 2-2590) (Homo sapiens, UniProt O75417)
Experiment: Polθ full length enzyme potency assay (PicoGreen)
Details: Polθ IC50 (nM), full length N-His, C-term FLAG tagged Polθ, PicoGreen fluorescence, 12 point concentration response

Chain of Polθ protein (amino acids 2-2590) (O75417 2-2590): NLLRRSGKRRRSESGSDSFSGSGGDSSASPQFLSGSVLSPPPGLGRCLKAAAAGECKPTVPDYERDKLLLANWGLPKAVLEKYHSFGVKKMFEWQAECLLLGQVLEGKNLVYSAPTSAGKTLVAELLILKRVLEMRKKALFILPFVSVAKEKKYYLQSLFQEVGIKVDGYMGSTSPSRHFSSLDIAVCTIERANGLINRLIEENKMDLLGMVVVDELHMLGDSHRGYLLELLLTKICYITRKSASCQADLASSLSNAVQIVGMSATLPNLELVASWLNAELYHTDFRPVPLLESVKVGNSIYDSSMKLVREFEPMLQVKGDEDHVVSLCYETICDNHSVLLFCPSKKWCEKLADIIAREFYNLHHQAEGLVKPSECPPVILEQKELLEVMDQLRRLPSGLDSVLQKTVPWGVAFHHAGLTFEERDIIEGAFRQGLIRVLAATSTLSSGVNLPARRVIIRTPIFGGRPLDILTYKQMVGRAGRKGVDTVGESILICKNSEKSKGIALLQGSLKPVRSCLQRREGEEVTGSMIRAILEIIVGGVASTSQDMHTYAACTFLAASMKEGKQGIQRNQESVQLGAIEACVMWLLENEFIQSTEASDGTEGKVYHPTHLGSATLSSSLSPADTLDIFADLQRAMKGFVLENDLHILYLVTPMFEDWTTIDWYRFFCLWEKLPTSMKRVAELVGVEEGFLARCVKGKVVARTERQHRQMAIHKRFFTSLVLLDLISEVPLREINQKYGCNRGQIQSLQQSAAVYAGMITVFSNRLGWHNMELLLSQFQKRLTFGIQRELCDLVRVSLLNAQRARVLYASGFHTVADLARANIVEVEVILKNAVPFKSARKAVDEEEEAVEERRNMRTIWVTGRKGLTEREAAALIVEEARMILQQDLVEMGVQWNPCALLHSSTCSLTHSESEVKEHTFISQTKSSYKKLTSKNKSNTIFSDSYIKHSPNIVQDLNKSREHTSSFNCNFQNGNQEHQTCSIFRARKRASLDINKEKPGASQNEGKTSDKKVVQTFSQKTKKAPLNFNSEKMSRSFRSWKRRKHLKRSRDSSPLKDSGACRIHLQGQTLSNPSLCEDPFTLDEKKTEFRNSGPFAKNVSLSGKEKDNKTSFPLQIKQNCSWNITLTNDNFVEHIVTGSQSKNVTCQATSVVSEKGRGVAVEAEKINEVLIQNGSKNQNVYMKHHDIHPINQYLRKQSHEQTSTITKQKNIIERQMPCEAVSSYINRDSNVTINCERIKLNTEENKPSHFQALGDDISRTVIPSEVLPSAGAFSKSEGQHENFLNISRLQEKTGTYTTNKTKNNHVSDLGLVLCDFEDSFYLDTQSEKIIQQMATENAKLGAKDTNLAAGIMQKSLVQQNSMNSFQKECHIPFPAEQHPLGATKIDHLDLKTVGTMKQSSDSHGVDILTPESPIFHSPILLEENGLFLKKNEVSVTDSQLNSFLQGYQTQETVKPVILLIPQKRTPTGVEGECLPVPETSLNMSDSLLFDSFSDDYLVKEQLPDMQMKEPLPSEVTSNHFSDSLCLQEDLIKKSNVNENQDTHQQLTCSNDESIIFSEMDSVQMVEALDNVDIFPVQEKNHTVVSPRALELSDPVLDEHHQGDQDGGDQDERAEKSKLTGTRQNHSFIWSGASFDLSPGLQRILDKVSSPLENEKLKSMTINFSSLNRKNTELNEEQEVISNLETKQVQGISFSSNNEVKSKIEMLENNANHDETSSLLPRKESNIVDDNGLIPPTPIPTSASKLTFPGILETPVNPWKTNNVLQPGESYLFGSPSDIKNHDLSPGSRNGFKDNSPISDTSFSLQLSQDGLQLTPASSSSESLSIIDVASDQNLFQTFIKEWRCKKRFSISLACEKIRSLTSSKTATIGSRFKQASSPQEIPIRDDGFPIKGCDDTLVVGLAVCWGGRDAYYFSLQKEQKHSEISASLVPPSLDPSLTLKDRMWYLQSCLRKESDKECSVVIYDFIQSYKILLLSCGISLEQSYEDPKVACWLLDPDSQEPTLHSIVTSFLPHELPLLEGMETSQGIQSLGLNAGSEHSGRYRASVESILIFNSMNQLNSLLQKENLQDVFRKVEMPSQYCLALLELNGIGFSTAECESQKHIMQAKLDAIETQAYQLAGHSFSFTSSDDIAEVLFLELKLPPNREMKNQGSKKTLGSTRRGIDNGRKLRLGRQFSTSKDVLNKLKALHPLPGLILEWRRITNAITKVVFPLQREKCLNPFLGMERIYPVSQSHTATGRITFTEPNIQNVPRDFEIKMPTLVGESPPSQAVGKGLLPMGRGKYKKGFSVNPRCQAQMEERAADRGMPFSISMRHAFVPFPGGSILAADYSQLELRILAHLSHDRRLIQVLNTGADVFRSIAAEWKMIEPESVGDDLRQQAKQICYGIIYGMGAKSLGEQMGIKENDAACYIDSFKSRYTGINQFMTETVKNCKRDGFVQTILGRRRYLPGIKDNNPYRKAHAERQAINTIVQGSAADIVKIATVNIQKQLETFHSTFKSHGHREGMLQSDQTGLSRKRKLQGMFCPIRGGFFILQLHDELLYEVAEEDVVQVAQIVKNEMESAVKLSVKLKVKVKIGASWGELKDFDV

| Structure (SMILES) | IC50 |
| --- | --- |
| CCN(C(=O)[C@@H]1C[C@H](N(C)CCS(C)(=O)=O)CN1c1nc(C)cc(C)c1C#N)c1cccc(C)c1 [Example 46, (2S,4S)-1-(3-Cyano-4,6-dimethylpyridin-2-yl)-N-ethyl-4-(methyl(2-(methylsulfonyl)-ethyl)amino)-N-(m-tolyl)-pyrrolidine-2-carboxamide] | 227 nM |
| CN(C(=O)[C@@H]1COC(=O)N1c1cc(OC(F)F)cc(Cl)n1)c1ccc(F)c(Cl)c1 [Example 120, (S)-3-(6-Chloro-4-(difluoromethoxy)pyridin-2-yl)-N-(3-chloro-4-fluorophenyl)-N-methyl-2-oxooxazolidine-4-carboxamide] | 94 nM |
| Cc1cc(C(F)(F)F)cc(N2C(=O)[C@@H](O)[C@@H](O)[C@H]2C(=O)N(C)c2ccc3c(n2)N(C)CCO3)n1 [Example 169, (2S,3S,4S)-3,4-Dihydroxy-N-methyl-N-(4-methyl-3,4-dihydro-2H-pyrido[3,2-b][1,4]oxazin-6-yl)-1-(6-methyl-4-(trifluoromethyl)pyridin-2-yl)-5-oxopyrrolidine-2-carboxamide] | 106 nM |
| Cc1cc(C(F)(F)F)c(C#N)c(N2C[C@@H](O)C[C@H]2C(=O)N(C)c2ccccc2)n1 [Example 8, (2S,4S)-1-(3-Cyano-6-methyl-4-(trifluoromethyl)pyridin-2-yl)-4-hydroxy-N-methyl-N-phenylpyrrolidine-2-carboxamide] | 180 nM |
| CCN(C(=O)[C@@H]1C[C@H](O)CN1c1nc(C)cc(C)c1C#N)c1cccc(C)c1 [Example 21, (2S,4S)-1-(3-Cyano-4,6-dimethylpyridin-2-yl)-N-ethyl-4-hydroxy-N-(m-tolyl)pyrrolidine-2-carboxamide] | 77 nM |
| CCN(C(=O)[C@@H]1C[C@H](N2CCOC(CO)C2)CN1c1nc(C)cc(C(F)(F)F)c1C#N)c1ccc(C)c(Cl)c1 (stereo partly drawn) [Example 149, (2S,4S)-N-(3-Chloro-4-methylphenyl)-1-(3-cyano-6-methyl-4-(trifluoromethyl)pyridin-2-yl)-N-ethyl-4-(2-(hydroxymethyl)morpholino)pyrrolidine-2-carboxamide] | 5 nM |
| CCN(C(=O)[C@H]1C[C@@H](NC)CN1c1nc(C)cc(C)c1C#N)c1cccc(C)c1 (stereo in doubt) [Example 43, (2R,4R)-1-(3-Cyano-4,6-dimethylpyridin-2-yl)-N-ethyl-4-(methylamino)-N-(m-tolyl)-pyrrolidine-2-carboxamide] | 221 nM |
| CCN(C(=O)[C@@H]1C[C@H](N[C@H]2CCC[C@H]2O)CN1c1cc(C(F)(F)F)cc(C)n1)c1ccc(F)c(F)c1 [Example 134, (2S,4S)-N-(3,4-Difluorophenyl)-N-ethyl-4-(((1S,2R)-2-hydroxycyclopentyl)amino)-1-(6-methyl-4-(trifluoromethyl)pyridin-2-yl)pyrrolidine-2-carboxamide] | 124 nM |
| Cc1cc(C(F)(F)F)cc(N2C(=O)[C@@H](O)[C@@H](O)[C@H]2C(=O)N(C)c2ccc(F)c(Cl)c2F)n1 [Example 70, (2S,3S,4S)—N-(3-Chloro-2,4-difluorophenyl)-3,4-dihydroxy-N-methyl-1-(6-methyl-4-(trifluoromethyl)pyridin-2-yl)-5-oxopyrrolidine-2-carboxamide] | 4 nM |
| Cc1cc(C(F)(F)F)c(C#N)c(N2C[C@@H](O)C[C@H]2C(=O)N(C)c2cc(F)c(F)cc2F)n1 [Example 20, (2S,4S)-1-(3-Cyano-6-methyl-4-(trifluoromethyl)pyridin-2-yl)-4-hydroxy-N-methyl-N-(2,4,5-trifluorophenyl)pyrrolidine-2-carboxamide] | 67 nM |

Continued, values first:

| IC50 | Structure (SMILES) |
| --- | --- |
| 23 nM | Cc1cc(C(F)(F)F)cc(N2C(=O)OC[C@H]2C(=O)N(C)c2ccc(Cl)c(F)c2F)n1 [Example 101, (S)-N-(4-Chloro-2,3-difluorophenyl)-N-methyl-3-(6-methyl-4-(trifluoromethyl)pyridin-2-yl)-2-oxooxazolidine-4-carboxamide] |
| 6 nM | Cc1cc(C(F)(F)F)cc(N2C(=O)N(CCO)C[C@H]2C(=O)N(C)c2ccc(F)c(Cl)c2)n1 [Example 193, (S)—N-(3-Chloro-4-fluorophenyl)-1-(2-hydroxyethyl)-N-methyl-3-(6-methyl-4-(trifluoromethyl)pyridin-2-yl)-2-oxoimidazolidine-4-carboxamide] |
| 71 nM | Cc1cc(C(F)(F)F)cc(N2C(=O)[C@@H](O)[C@@H](O)[C@H]2C(=O)N(C)c2ccc3cnn(C)c3c2)n1 [Example 168, (2S,3S,4S)-3,4-Dihydroxy-N-methyl-N-(1-methyl-1H-indazol-6-yl)-1-(6-methyl-4-(trifluoromethyl)pyridin-2-yl)-5-oxopyrrolidine-2-carboxamide] |
| 13 nM | Cc1cc(C(F)(F)F)cc(N2C(=O)N(CC(N)=O)C[C@H]2C(=O)N(C)c2ccc(F)c(Cl)c2)n1 [Example 184, (S)-1-(2-Amino-2-oxoethyl)-N-(3-chloro-4-fluorophenyl)-N-methyl-3-(6-methyl-4-(trifluoromethyl)-pyridin-2-yl)-2-oxoimidazolidine-4-carboxamide] |
| 32 nM | Cc1cc(C(F)(F)F)cc(N2C(=O)[C@H](O)[C@H](O)[C@H]2C(=O)N(C)c2ccc(F)c(Cl)c2)n1 [Example 72, (2S,3R,4R)—N-(3-Chloro-4-fluorophenyl)-3,4-dihydroxy-N-methyl-1-(6-methyl-4-(trifluoromethyl)pyridin-2-yl)-5-oxopyrrolidine-2-carboxamide] |
| 86 nM | Cc1cc(C(F)(F)F)cc(N2C(=O)OC[C@H]2C(=O)N(C)c2ccc3c(c2)COC3)n1 [Example 102, (S)-N-(1,3-Dihydroisobenzofuran-5-yl)-N-methyl-3-(6-methyl-4-(trifluoromethyl)pyridin-2-yl)-2-oxooxazolidine-4-carboxamide] |
| 27 nM | Cc1cc(C(F)(F)F)cc(N2C(=O)NC[C@H]2C(=O)N(C)c2ccc3cnn(C)c3c2)n1 [Example 235, (S)—N-Methyl-N-(1-methyl-1H-indazol-6-yl)-3-(6-methyl-4-(trifluoromethyl)pyridin-2-yl)-2-oxoimidazolidine-4-carboxamide] |
| 6 nM | Cc1cc(C(F)(F)F)cc(N2C(=O)N(CCN3CC[C@H](F)C3)C[C@H]2C(=O)N(C)c2ccc(F)c(Cl)c2F)n1 [Example 205, (S)-N-(3-Chloro-2,4-difluorophenyl)-1-(2-((S)-3-fluoropyrrolidin-1-yl)ethyl)-N-methyl-3-(6-methyl-4-(trifluoromethyl)pyridin-2-yl)-2-oxoimidazolidine-4-carboxamide] |
| 167 nM | Cc1cc(OC(F)F)cc(N2C(=O)OC[C@H]2C(=O)N(C)c2ccc(F)c(Cl)c2)n1 [Example 121, (S)—N-(3-Chloro-4-fluorophenyl)-3-(4-(difluoromethoxy)-6-methylpyridin-2-yl)-N-methyl-2-oxooxazolidine-4-carboxamide] |
| 61 nM | C=C(C)c1cc(C)nc(N2C(=O)OC[C@H]2C(=O)N(C)c2ccc(F)c(Cl)c2)c1 [Example 117, (S)—N-(3-Chloro-4-fluorophenyl)-N-methyl-3-(6-methyl-4-(prop-1-en-2-yl)pyridin-2-yl)-2-oxooxazolidine-4-carboxamide] |

Same assay, conditions: read-out: Polθ IC50; full length N-His, C-term FLAG tagged Polθ, PicoGreen fluorescence, 12 point concentration response

| IC50 | Structure (SMILES) |
| --- | --- |
| 20 nM | CCN(C(=O)[C@@H]1[C@H](O)[C@H](O)C(=O)N1c1cc(C(F)(F)F)cc(C)n1)c1ccc(F)c(Cl)c1 [Example 66, (2S,3S,4S)-N-(3-Chloro-4-fluoro-phenyl)-N-ethyl-3,4-dihydroxy-1-(6-methyl-4-(trifluoromethyl)pyridin-2-yl)-5-oxopyrrolidine-2-carboxamide] |
